Source: ChEMBL document CHEMBL5244272 (Eur J Med Chem, 2021)
Converted amounts (≈) assume the structure as drawn.

Legend:
Plasmodium falciparum [1] = test: Antimalarial activity against chloroquine resistant Plasmodium falciparum; type: functional, organism-based
Plasmodium vinckei [2] = test: Antimalarial activity against Plasmodium vinckei infected in po dosed mouse; type: functional
Plasmodium falciparum [3] = test: Antimalarial activity against Plasmodium falciparum 3D7; type: functional, organism-based
Plasmodium vinckei [4] = test: Antimalarial activity against Plasmodium vinckei infected in ip dosed mouse; type: functional
Plasmodium falciparum [5] = test: Antimalarial activity against Plasmodium falciparum W2; type: functional, organism-based
Plasmodium falciparum [6] = test: Antimalarial activity against Plasmodium falciparum NF54; type: functional, organism-based
Plasmodium falciparum [7] = test: Antimalarial activity against Plasmodium falciparum K1; type: functional, organism-based
[8] = Selectivity index, ratio of IC50 for HEK293 cells to IC50 for Plasmodium falciparum NF54; type: toxicity; conditions: human, read-out: Ratio IC50
Plasmodium falciparum [9] = test: Antimalarial activity against ART-sensitive Plasmodium falciparum NF54; type: functional, organism-based
Plasmodium falciparum [10] = test: Antimalarial activity against ART-sensitive Plasmodium falciparum 3D7; type: functional, organism-based
Plasmodium falciparum [11] = test: Antimalarial activity against ART-resistant Plasmodium falciparum Dd2 harboring R539T mutant; type: functional, organism-based
Plasmodium falciparum [12] = test: Antimalarial activity against ART-sensitive Plasmodium falciparum W2; type: functional, organism-based
Plasmodium falciparum [13] = test: Antimalarial activity against ART-resistant Plasmodium falciparum NF54 harboring […] mutant; type: functional, organism-based
Plasmodium falciparum [14] = test: Antimalarial activity against chloroquine-sensitive Plasmodium falciparum NF54; type: functional, organism-based
Plasmodium falciparum [15] = test: Antimalarial activity against chloroquine-sensitive Plasmodium falciparum NF54 infected in po dosed mouse; type: functional
Plasmodium falciparum [16] = test: Antimalarial activity against chloroquine-sensitive Plasmodium falciparum NF54 infected in iv dosed mouse; type: functional
[17] = Cytotoxicity against human MRC5 cells; type: toxicity, cell-based
Plasmodium berghei [18] = test: Antimalarial activity against Plasmodium berghei N strain infected in mouse at 15 mg/kg, ip administered once daily for 4 days; type: functional; conditions: time 4 day
Plasmodium falciparum [19] = test: Antimalarial activity against chloroquine sensitive Plasmodium falciparum FCR-3; type: functional, organism-based
Plasmodium falciparum [20] = test: Antimalarial activity against Plasmodium falciparum; type: functional, organism-based
Plasmodium falciparum [21] = test: Antimalarial activity against late blood stage Plasmodium falciparum NF54 gametocytes; type: functional, organism-based
Plasmodium falciparum [22] = test: Antimalarial activity against Plasmodium falciparum D10; type: functional, organism-based
Plasmodium yoelii [23] = test: Antimalarial activity against Plasmodium yoelii infected in sc dosed mouse; type: functional
Plasmodium berghei [24] = test: Antimalarial activity against Plasmodium berghei infected in po dosed mouse; type: functional
Plasmodium berghei [25] = test: Antimalarial activity against Plasmodium berghei infected in sc dosed mouse; type: functional; conditions: Plasmodium berghei
Plasmodium yoelii [26] = test: Antimalarial activity against Plasmodium yoelii infected in po dosed mouse; type: functional
Plasmodium falciparum [27] = test: Antimalarial activity against Plasmodium falciparum FcB1 at 10 ng/ml; type: functional
Plasmodium falciparum [28] = test: Antimalarial activity against Plasmodium falciparum FcB1 at 1 ng/ml; type: functional
Plasmodium falciparum [29] = test: Antimalarial activity against Plasmodium falciparum FcB1 at 100 ng/ml; type: functional
Plasmodium falciparum [30] = test: Antimalarial activity against Plasmodium falciparum IPC5202; type: functional, organism-based
Plasmodium falciparum [31] = test: Antimalarial activity against Plasmodium falciparum IPC4912; type: functional, organism-based
Plasmodium falciparum [32] = test: Antimalarial activity against Plasmodium falciparum Dd2; type: functional, organism-based
[33] = Toxicity in brine shrimp; conditions: artemia salina
Plasmodium berghei [34] = test: Antimalarial activity against Plasmodium berghei N strain infected in mouse at 30 mg/kg, ip administered once daily for 4 days; type: functional; conditions: time 4 day
Plasmodium berghei [35] = test: Antimalarial activity against Plasmodium berghei K173 infected in mouse; type: functional; conditions: Plasmodium berghei, K173
Plasmodium yoelii [36] = test: Antimalarial activity against Plasmodium yoelii infected in mouse; type: functional

Compound: CC(=O)OCCC[C@]12O[C@H]([C@@H]3OO[C@H]1O3)[C@H](C)C(=O)[C@@H]2C
- IC50 (Plasmodium falciparum [1]): 3 microg/cm3

Compound: C[C@H]1[C@@H](OCCNCCCNc2ccnc3cc(Cl)ccc23)O[C@@H]2O[C@]3(C)CC[C@H]4[C@H](C)CC[C@@H]1[C@@]24OO3
- ED50 (Plasmodium vinckei [2]): 13 mg/kg
- IC50 (Plasmodium falciparum [3]): 5.2 nM
- ED50 (Plasmodium vinckei [4]): < 0.8 mg/kg

Compound: C[C@H]1[C@@H](OCCNCCNc2ccnc3cc(Cl)ccc23)O[C@@H]2O[C@]3(C)CC[C@H]4[C@H](C)CC[C@@H]1[C@@]24OO3
- ED50 (Plasmodium vinckei [2]): 16 mg/kg
- IC50 (Plasmodium falciparum [3]): 20.5 nM
- ED50 (Plasmodium vinckei [4]): 1.4 mg/kg

Compound: CC(C)CCC[C@H](C)C1CC[C@H]2[C@@H]3CC=C4C[C@@H](OC(=O)CCCCCN5CCN([C@H]6O[C@@H]7O[C@]8(C)CC[C@H]9[C@H](C)CC[C@@H]([C@H]6C)[C@@]79OO8)CC5)CC[C@]4(C)[C@H]3CC[C@]12C (some centres not stated)
- IC50 (Plasmodium falciparum [5]): 70 nM
- IC50 (Plasmodium falciparum [6]): 78 nM
- IC50 (Plasmodium falciparum [7]): 52 nM
- selectivity ratio [8]: 1820

Compound: C[C@H]1[C@@H](OCCCNc2ccc([N+](=O)[O-])c3nonc23)O[C@@H]2O[C@]3(C)CC[C@H]4[C@H](C)CC[C@@H]1[C@@]24OO3
- IC50 (Plasmodium falciparum [9]): 11.2 nM
- IC50 (Plasmodium falciparum [10]): 22.6 nM
- IC50 (Plasmodium falciparum [11]): 19.6 nM
- IC50 (Plasmodium falciparum [12]): 9.6 nM
- IC50 (Plasmodium falciparum [13]): 9.5 nM

Compound: COCCC[C@]12O[C@H]([C@@H]3OO[C@H]1O3)[C@H](C)C(=O)[C@@H]2C
- IC50 (Plasmodium falciparum [1]): 2 microg/cm3

Compound: C[C@H]1[C@H](CC(C[C@H]2O[C@@H]3O[C@]4(C)CC[C@H]5[C@H](C)CC[C@@H]([C@H]2C)[C@@]35OO4)C(=O)O)O[C@@H]2O[C@]3(C)CC[C@H]4[C@H](C)CC[C@@H]1[C@@]24OO3 (some centres not stated)
- EC50 (Plasmodium falciparum [14]): 2.4 nM
- ED50 (Plasmodium falciparum [15]): 2 mg/kg
- ED50 (Plasmodium falciparum [16]): 0.8 mg/kg

Compound: C[C@H]1C(=O)O[C@@H]2O[C@]3(C)CC[C@H]4N(Cc5ccc(OCCN6CCOCC6)cc5)CC[C@@H]1[C@@]24OO3
- IC50 [17]: 35600 nM
- Activity (Plasmodium berghei [18]): 98.6%
- IC50 (Plasmodium falciparum [7]): 33 nM
- IC50 (Plasmodium falciparum [19]): 18 nM

Compound: COC1(c2ccc(S(C)(=O)=O)cc2)CCC2(CCCCC2)OO1 (configuration not stated)
- IC50 (Plasmodium falciparum [20]): 31 nM

Compound: C[C@H]1[C@H](N2CCS(=O)(=O)CC2)O[C@@H]2O[C@]3(C)CC[C@H]4[C@H](C)CC[C@@H]1[C@@]24OO3
- IC50 (Plasmodium falciparum [21]): 42.4 nM
- IC50 (Plasmodium falciparum [22]): 1.1 nM
- IC50 (Plasmodium falciparum [9]): 0.9 nM
- IC50 (Plasmodium falciparum [10]): 0.9 nM
- IC50 (Plasmodium falciparum [11]): 1.4 nM
- IC50 (Plasmodium falciparum [12]): 0.5 nM
- IC50 (Plasmodium falciparum [5]): 0.9 nM
- IC50 (Plasmodium falciparum [13]): 0.7 nM

Compound: C[C@H]1[C@H](N2CCN(c3ccc(S(=O)(=O)N(C)C)c4nonc34)CC2)O[C@@H]2O[C@]3(C)CC[C@H]4[C@H](C)CC[C@@H]1[C@@]24OO3
- IC50 (Plasmodium falciparum [9]): 16.4 nM
- IC50 (Plasmodium falciparum [10]): 348 nM
- IC50 (Plasmodium falciparum [11]): 497 nM
- IC50 (Plasmodium falciparum [12]): 249 nM
- IC50 (Plasmodium falciparum [13]): 13.5 nM

Compound: C[C@H]1[C@H](NC2CCN(c3ncccn3)CC2)O[C@@H]2O[C@]3(C)CC[C@H]4[C@H](C)CC[C@@H]1[C@@]24OO3
- ED90 (Plasmodium yoelii [23]): 0.52 mg/kg
- ED90 (Plasmodium berghei [24]): 1.5 mg/kg
- ED90 (Plasmodium berghei [25]): 0.46 mg/kg
- ED90 (Plasmodium yoelii [26]): 2 mg/kg

Compound: C[C@@H]1CC[C@H]2[C@@H](C)C(=O)N(CCC(=O)N(CC(=O)NC(=O)c3ccccc3)C(C)(C)C)[C@@H]3O[C@]4(C)CC[C@@H]1[C@@]23OO4
- Activity (Plasmodium falciparum [27]): 99%
- Activity (Plasmodium falciparum [28]): 98%
- Activity (Plasmodium falciparum [29]): 100%

Compound: C1C2CC3CC1CC(C2)[C@]31OO[C@@]2(CCC(Nc3nn[nH]n3)CC2)O1 (some centres not stated)
- IC50 (Plasmodium falciparum [3]): 2.8 nM
- IC50 (Plasmodium falciparum [30]): 6.1 nM
- IC50 (Plasmodium falciparum [31]): 6.8 nM
- IC50 (Plasmodium falciparum [32]): 2.5 nM

Compound: C[C@H]1[C@H](OC(=O)CCCc2ccccc2)O[C@@H]2O[C@]3(C)CC[C@H]4[C@H](C)CC[C@@H]1[C@@]24OO3
- LC50 [33]: 139 µg/mL (≈ 323 µM)
- IC50 (Plasmodium falciparum [3]): 5.36 nM

Compound: C[C@H]1[C@H](NC2CCN(Cc3ccccc3)CC2)O[C@@H]2O[C@]3(C)CC[C@H]4[C@H](C)CC[C@@H]1[C@@]24OO3
- ED90 (Plasmodium yoelii [23]): 0.85 mg/kg
- ED90 (Plasmodium berghei [24]): 2.4 mg/kg
- ED90 (Plasmodium berghei [25]): 0.7 mg/kg
- ED90 (Plasmodium yoelii [26]): 3 mg/kg

Compound: C[C@H]1C(=O)O[C@@H]2O[C@]3(C)CC[C@H]4N(Cc5ccccc5)CC[C@@H]1[C@@]24OO3
- IC50 [17]: 160000 nM
- Activity (Plasmodium berghei [34]): 95.6%
- Activity (Plasmodium berghei [18]): 69.1%
- IC50 (Plasmodium falciparum [7]): 86 nM
- IC50 (Plasmodium falciparum [19]): 58 nM

Compound: CCCN(CC(=O)NC(=O)c1ccccc1)C(=O)CCN1C(=O)[C@H](C)[C@@H]2CC[C@@H](C)[C@@H]3CC[C@]4(C)OO[C@]32[C@H]1O4
- Activity (Plasmodium falciparum [27]): 99%
- Activity (Plasmodium falciparum [28]): 100%
- Activity (Plasmodium falciparum [29]): 100%

Compound: C[C@H]1[C@@H](OC(=O)c2ccc3[nH]cnc3c2)O[C@@H]2O[C@]3(C)CC[C@H]4[C@H](C)CC[C@@H]1[C@@]24OO3
- LC50 [33]: 362 µg/mL (≈ 844 µM)
- IC50 (Plasmodium falciparum [3]): 6.96 nM

Compound: C[C@H]1[C@H](NC2CCOCC2)O[C@@H]2O[C@]3(C)CC[C@H]4[C@H](C)CC[C@@H]1[C@@]24OO3
- ED90 (Plasmodium yoelii [23]): 1.25 mg/kg
- ED90 (Plasmodium berghei [24]): 1.3 mg/kg
- ED90 (Plasmodium berghei [25]): 0.18 mg/kg
- ED90 (Plasmodium yoelii [26]): 1.84 mg/kg

Compound: C[C@H]1[C@H](CC(COC(=O)c2cc[n+]([O-])cc2)C[C@H]2O[C@@H]3O[C@]4(C)CC[C@H]5[C@H](C)CC[C@@H]([C@H]2C)[C@@]35OO4)O[C@@H]2O[C@]3(C)CC[C@H]4[C@H](C)CC[C@@H]1[C@@]24OO3 (some centres not stated)
- EC50 (Plasmodium falciparum [14]): 0.53 nM
- ED50 (Plasmodium falciparum [15]): 2 mg/kg
- ED50 (Plasmodium falciparum [16]): 0.8 mg/kg

Compound: CC(CNCCO[C@H]1O[C@@H]2O[C@]3(C)CC[C@H]4[C@H](C)CC[C@@H]([C@H]1C)[C@@]24OO3)Nc1ccnc2cc(Cl)ccc12 (some centres not stated)
- ED50 (Plasmodium vinckei [2]): 12 mg/kg
- ED50 (Plasmodium vinckei [4]): 1.1 mg/kg

Compound: C[C@@H]1CC[C@H]2[C@@H](C)C(=O)N(CCC(=O)N(CCO)CC(=O)NC(=O)c3ccccc3)[C@@H]3O[C@]4(C)CC[C@@H]1[C@@]23OO4
- Activity (Plasmodium falciparum [27]): 99%
- Activity (Plasmodium falciparum [28]): 78%
- Activity (Plasmodium falciparum [29]): 100%

Compound: O=P1(N(CCCl)CCCl)NCCCO1 (configuration not stated) [CYCLOPHOSPHAMIDE ANHYDROUS]
- LC50 [33]: 1.08 µg/mL (≈ 4.14 µM)

Compound: C[C@H]1[C@H](OC(=O)CCC(=O)O)O[C@@H]2O[C@@]3(C)CC[C@H]4[C@H](C)CC[C@@H]1[C@@]24OO3 [ARTESUNATE]
- IC50 (Plasmodium falciparum [14]): 18.4 nM
- ED50 (Plasmodium berghei [35]): 6.33 mg/kg/day
- IC50 (Plasmodium falciparum [5]): 2 nM
- EC50 (Plasmodium falciparum [3]; read-out: EC50): 8.9 nM
- IC50 (Plasmodium falciparum [6]): 0.0012 µg/mL
- Activity (Plasmodium berghei [34]): 97.7%
- IC50 (Plasmodium falciparum [7]): 0.0012 µg/mL
- ED50 (Plasmodium yoelii [36]): 5 mg/kg
- ED50 (Plasmodium falciparum [15]): 5.5 mg/kg
- ED50 (Plasmodium falciparum [16]): 5.5 mg/kg

Compound: Cn1nnc(NCC2CC[C@]3(CC2)OO[C@]2(O3)C3CC4CC(C3)CC2C4)n1 (some centres not stated)
- IC50 (Plasmodium falciparum [3]): 2.9 nM
- IC50 (Plasmodium falciparum [30]): 3.4 nM
- IC50 (Plasmodium falciparum [31]): 4.8 nM
- IC50 (Plasmodium falciparum [32]): 2.1 nM
